The test system of data set [1] is SH-SY5Y. The experiment in a line: Neuroprotective activity against PFF-induced human SH-SY5Y cells assessed as decrease in autophagosome level measured for 6 hrs by MDC fluorescence assay. The format is functional, cell-based.
Data set [2] concerns SH-SY5Y. Description: Cytotoxicity against PFF-induced human SH-SY5Y cells assessed as increase in LDH release incubated for 24 hrs by fluorescence based analysis. The class given is functional. A general note: LDH in the medium is a marker of cell lysis.
Data set [3] can be described thus: Drug concentration in ICR mouse plasma at 10 mg/kg, iv by LC-MS/MS analysis. The class given is ADME, organism-based. As to conditions: in vivo.
The nature of data set [4]: Drug concentration in ICR mouse brain at 10 mg/kg, iv by LC-MS/MS analysis. The format is ADME, organism-based. Conditions: in vivo.
The nature of data set [5]: Tmax in ICR mouse at 10 mg/kg, ip measured upto 7 hrs by HPLC analysis. The format is ADME, organism-based. Conditions: in vivo.
Data set [6] deals with SH-SY5Y. Description: Neuroprotective activity against PFF-induced human SH-SY5Y cells assessed as diffusion of Cy5-PFF and lysosome into cytoplasm measured for 12 hrs by olympus confocal microscopic analysis. The format is functional, cell-based.
Data set [7] is described as follows: AUC (0 to infinity) in ICR mouse at 10 mg/kg, ip measured upto 7 hrs by HPLC analysis. As to conditions: in vivo. The format is ADME, organism-based.
Data set [8] can be described thus: Half life in ICR mouse at 10 mg/kg, iv measured upto 7 hrs by HPLC analysis. The format is ADME, organism-based. As to conditions: in vivo.
Data set [9] can be described thus: Half life in ICR mouse at 10 mg/kg, ip measured upto 7 hrs by HPLC analysis. The format is ADME, organism-based. As to conditions: in vivo.
The subject of data set [10] is SH-SY5Y. Description: Induction of ROS level in PFF-induced human SH-SY5Y cells measured for 12 hrs by DCFH-DA staining based analysis. The format is functional, cell-based.
Data set [11] in a line: Clearance in ICR mouse plasma at 10 mg/kg, ip measured upto 7 hrs by HPLC analysis. The format is ADME, organism-based. Conditions: in vivo.
A short description of data set [12]: Ratio of drug concentration in ICR mouse brain to plasma at 10 mg/kg, iv by LC-MS/MS analysis. The class given is ADME, organism-based. As to conditions: read-out: BPR.
The nature of data set [13]: Clearance in ICR mouse plasma at 10 mg/kg, iv measured upto 7 hrs by HPLC analysis. The format is ADME, organism-based.
Data set [14] in a line: AUC (0 to infinity) in ICR mouse at 10 mg/kg, iv measured upto 7 hrs by HPLC analysis. Conditions: in vivo. The format is ADME, organism-based.
The nature of data set [15]: Bioavailability in ICR mouse at 10 mg/kg, ip or 10 mg/kg, iv measured upto 7 hrs by HPLC analysis. The class given is ADME, organism-based. Conditions: in vivo.

Two compounds from ChEMBL document CHEMBL5550158, “Novel 4-triazole phenyl amide (4-TPA) molecules: Potent promoters of α-synuclein fibril disassembly” (Eur J Med Chem, 2024) can be followed below.

SMILES strings stand for the structures. Calls of active or inactive are those of the source.

What is called Tmax is the time at which the peak concentration occurs. By AUC is commonly meant the area under the concentration-time curve, a measure of exposure. A low value points to less exposure. The term half-life denotes the time needed for the level to fall by half in the phase considered. As a reminder, the clearance is the volume of plasma or blood freed of the substance per unit of time. Low values mean inefficient removal, high ones efficient removal. As usually defined, the AUC(0-inf) is the area under the concentration-time curve extrapolated to infinity. Low values mean low exposure, high ones high exposure. What is called bioavailability is the share of a dose that reaches the circulation, judged against a reference dose that is usually intravenous. High values mean much systemic uptake, low ones little systemic uptake.

For `COc1ccc(-n2cc(-c3ccc(NC(=O)c4cc(Br)cc(OC)c4)cc3)nn2)cc1`, the result in the data set with SH-SY5Y [1] was inactive. Also, the Activity in the data set on SH-SY5Y [2] was approximately 30%.

`COc1cc([N+](=O)[O-])ccc1-n1cc(-c2ccc(NC(=O)c3ccc(NC(C)=O)cc3)cc2)nn1` came in with a Cp in [3] of 17180 ng/mL. The compound also displayed a Ct in [4] of 1.76 µg/mL. Besides, the result in the data set on SH-SY5Y [1] and in the data set with SH-SY5Y [6] was Active. For the same compound, the Tmax in data set [5] is 30 min. In [7], this compound registered an area under the curve (AUC) of 1793.287 mg·min/L. The half-life in [8] came out at 48 min; in [9], 69 min. Further, in the data set on SH-SY5Y [10], the outcome was inactive. The CL in data set [11] amounted to 2 mL/min/kg. The Activity in the data set with SH-SY5Y [2] was approximately 30%. Also, in data set [12], the Kp came out at 0.1. The compound further returned a clearance in data set [13] of 4 mL/min/kg. The compound further showed an AUC(0-inf) in data set [14] of 41300 ng·h/mL. Moreover, in data set [15], the bioavailability is 72.4%.
